{"source": "ChEMBL document CHEMBL6071156", "about": "(Eur J Med Chem, 2024)", "key": {"[1]": {"test": "Toxicity in C57BL/6 mouse model assessed as effect on BUN level at 300 mg/kg/day, ip measured after 6 days post infection (reference value: 20 to 30)", "assay_type": "organism-based", "conditions": "in vivo, 144 h, time 6 day"}, "[2]": {"test": "Tmax in C57BL/6 mouse plasma at 10 mg/kg, po measured 4 hrs post dosing by LC-MS/MS", "assay_type": "ADME, organism-based", "conditions": "in vivo"}, "[3]": {"target": "T1, Cytochrome P450 2B6 (Homo sapiens, UniProt P20813)", "T1 sequence (P20813 whole entry)": "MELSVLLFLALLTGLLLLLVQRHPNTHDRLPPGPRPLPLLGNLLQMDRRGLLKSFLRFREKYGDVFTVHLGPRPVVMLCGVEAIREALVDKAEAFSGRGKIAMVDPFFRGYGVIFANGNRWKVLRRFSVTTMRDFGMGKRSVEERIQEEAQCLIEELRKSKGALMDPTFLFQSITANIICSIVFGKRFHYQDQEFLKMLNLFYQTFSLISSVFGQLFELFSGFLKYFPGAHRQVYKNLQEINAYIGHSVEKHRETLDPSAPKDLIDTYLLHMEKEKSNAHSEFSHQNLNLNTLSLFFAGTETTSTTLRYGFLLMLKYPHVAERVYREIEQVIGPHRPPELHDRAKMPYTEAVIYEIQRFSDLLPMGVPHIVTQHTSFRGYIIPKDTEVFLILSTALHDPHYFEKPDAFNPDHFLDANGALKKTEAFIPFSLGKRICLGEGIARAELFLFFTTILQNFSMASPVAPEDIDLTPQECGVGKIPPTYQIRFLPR", "test": "Inhibition of CYP2B6 (unknown origin)", "assay_type": "ADME"}, "[4]": {"test": "Metabolic stability in human liver S9 fraction assessed as half life by HPLC-MS/MS analysis", "assay_type": "ADME, subcellular"}, "[5]": {"test": "C0 in C57BL/6 mouse plasma at 2.5 mg/kg, iv measured upto 24 hrs post dosing by LC-MS/MS", "assay_type": "ADME, organism-based", "conditions": "in vivo"}, "[6]": {"test": "Volume in the terminal state in C57BL/6 mouse plasma at 2.5 mg/kg, iv measured upto 24 hrs post dosing by LC-MS/MS", "assay_type": "ADME, organism-based", "conditions": "in vivo"}, "[7]": {"test": "MRT in C57BL/6 mouse plasma at 10 mg/kg, po measured upto 24 hrs post dosing by LC-MS/MS", "assay_type": "ADME, organism-based", "conditions": "in vivo"}, "[8]": {"target": "T2, A-type voltage-gated potassium channel KCND3 (Homo sapiens, UniProt Q9UK17)", "T2 sequence (Q9UK17 whole entry)": "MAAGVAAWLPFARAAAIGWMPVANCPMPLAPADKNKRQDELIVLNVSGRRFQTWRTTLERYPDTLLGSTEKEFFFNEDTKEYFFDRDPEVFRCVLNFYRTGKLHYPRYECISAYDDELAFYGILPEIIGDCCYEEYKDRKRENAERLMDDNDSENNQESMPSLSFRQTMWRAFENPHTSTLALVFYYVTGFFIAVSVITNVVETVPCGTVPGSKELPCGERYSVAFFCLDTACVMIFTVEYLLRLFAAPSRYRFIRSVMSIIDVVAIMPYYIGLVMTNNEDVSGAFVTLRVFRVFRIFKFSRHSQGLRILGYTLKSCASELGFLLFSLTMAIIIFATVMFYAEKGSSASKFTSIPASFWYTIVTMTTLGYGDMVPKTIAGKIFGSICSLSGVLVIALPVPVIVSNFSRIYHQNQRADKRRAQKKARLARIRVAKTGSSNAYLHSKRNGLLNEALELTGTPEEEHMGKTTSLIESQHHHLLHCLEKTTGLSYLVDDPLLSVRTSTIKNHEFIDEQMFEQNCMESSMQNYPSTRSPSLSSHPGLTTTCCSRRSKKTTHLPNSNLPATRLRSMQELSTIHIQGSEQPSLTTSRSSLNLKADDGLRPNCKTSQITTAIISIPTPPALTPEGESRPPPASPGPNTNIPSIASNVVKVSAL", "test": "Antagonist activity at potassium channels hKv4.3/hKChiP2 expressed in HEK293 cells by Electrophysiology", "assay_type": "toxicity, cell-based"}, "[9]": {"target": "T3, Potassium voltage-gated channel subfamily KQT member 1 (Homo sapiens, UniProt P51787)", "T3 sequence (P51787 whole entry)": "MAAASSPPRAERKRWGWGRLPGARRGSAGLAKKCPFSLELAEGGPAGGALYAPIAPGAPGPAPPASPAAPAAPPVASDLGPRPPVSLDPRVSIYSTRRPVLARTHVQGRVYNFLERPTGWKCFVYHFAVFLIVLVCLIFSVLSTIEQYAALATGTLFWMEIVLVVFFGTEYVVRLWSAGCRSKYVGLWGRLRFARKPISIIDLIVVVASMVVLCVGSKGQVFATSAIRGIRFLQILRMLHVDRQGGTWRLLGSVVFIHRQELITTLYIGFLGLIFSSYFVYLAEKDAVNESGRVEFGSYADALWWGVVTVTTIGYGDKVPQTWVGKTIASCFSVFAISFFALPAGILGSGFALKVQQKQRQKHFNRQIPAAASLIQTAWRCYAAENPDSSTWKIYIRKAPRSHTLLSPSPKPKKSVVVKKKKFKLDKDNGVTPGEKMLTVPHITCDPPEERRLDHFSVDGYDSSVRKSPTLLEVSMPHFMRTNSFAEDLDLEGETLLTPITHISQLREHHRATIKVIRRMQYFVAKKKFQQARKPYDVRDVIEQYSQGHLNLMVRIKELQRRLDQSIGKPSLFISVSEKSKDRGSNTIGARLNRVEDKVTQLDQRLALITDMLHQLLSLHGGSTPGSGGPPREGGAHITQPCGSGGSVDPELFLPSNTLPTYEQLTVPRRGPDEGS", "test": "Antagonist activity at recombinant hKCNQ1/hmink expressed in CHO-K1 cells by Electrophysiology", "assay_type": "toxicity, cell-based"}, "[10]": {"target": "T4, Cytochrome P450 2C8 (Homo sapiens, UniProt P10632)", "T4 sequence (P10632 whole entry)": "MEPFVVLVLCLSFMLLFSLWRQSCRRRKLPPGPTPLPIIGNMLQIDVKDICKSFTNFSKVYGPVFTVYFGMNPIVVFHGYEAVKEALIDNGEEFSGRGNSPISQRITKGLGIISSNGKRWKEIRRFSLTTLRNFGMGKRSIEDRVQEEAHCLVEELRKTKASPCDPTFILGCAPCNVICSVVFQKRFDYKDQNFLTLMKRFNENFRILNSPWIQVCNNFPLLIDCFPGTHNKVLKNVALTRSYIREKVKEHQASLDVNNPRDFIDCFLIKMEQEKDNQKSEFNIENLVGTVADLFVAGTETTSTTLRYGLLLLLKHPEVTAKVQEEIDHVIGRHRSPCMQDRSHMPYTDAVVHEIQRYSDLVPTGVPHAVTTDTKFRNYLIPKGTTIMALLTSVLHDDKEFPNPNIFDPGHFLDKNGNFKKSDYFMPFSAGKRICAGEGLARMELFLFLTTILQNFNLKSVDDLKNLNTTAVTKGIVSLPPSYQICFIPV", "test": "Inhibition of CYP2C8 (unknown origin)", "assay_type": "ADME"}, "[11]": {"test": "Cytotoxicity against green monkey Vero 76 cells assessed as reduction in cell viability", "assay_type": "toxicity, cell-based", "conditions": "chlorocebus sabaeus"}, "[12]": {"test": "Oral bioavailability in C57BL/6 mouse plasma at 10 mg/kg, measured upto 24 hrs by LC-MS/MS", "assay_type": "ADME, organism-based", "conditions": "in vivo"}, "[13]": {"test": "Toxicity in C57BL/6 mouse model assessed as effect on TBILI level at 300 mg/kg/day, ip measured after 6 days post infection (reference value: 0.30 to 0.43)", "assay_type": "organism-based", "conditions": "in vivo, 144 h, time 6 day"}}, "note": "pIC50: −log10 of the molar value."}
{"smiles": "CC1CCNc2c(C(=O)NC/C=C/S(C)(=O)=O)cccc21", "note": "(stereo not drawn)", "values": [{"measurement": "Activity", "setting": "[1]", "value": 18, "unit": "mg/dL"}, {"measurement": "Tmax", "setting": "[2]", "value": 4, "unit": "h"}, {"measurement": "pIC50", "setting": "[3]", "value": "< 4.00"}, {"measurement": "t1/2", "setting": "[4]", "value": 104, "unit": "min"}, {"measurement": "C0", "setting": "[5]", "value": 966.5, "unit": "ng/mL"}, {"measurement": "Vz", "setting": "[6]", "value": 4.5, "unit": "L/kg"}, {"measurement": "MRT", "setting": "[7]", "value": 4.25, "unit": "h"}, {"measurement": "pIC50", "setting": "[8]", "value": "< 4.00"}, {"measurement": "pIC50", "setting": "[9]", "value": "< 4.00"}, {"measurement": "pIC50", "setting": "[10]", "value": "< 4.00"}, {"measurement": "CC50", "setting": "[11]", "value": "> 50", "unit": "µM"}, {"measurement": "F", "setting": "[12]", "value": 95.6, "unit": "%"}, {"measurement": "Activity", "setting": "[13]", "value": 0.34, "unit": "mg/dL"}]}
